According to patent US8022069B2, “Substituted piperidines as renin inhibitors” (Novartis AG, priority 2008, dated 2011):

Biological target: T1, renin (Homo sapiens, UniProt P00797)
T1 construct: This test measures the formation of angiotensin I in human plasma; from tissue; host or cells: human plasma
T1 sequence (P00797 67-406): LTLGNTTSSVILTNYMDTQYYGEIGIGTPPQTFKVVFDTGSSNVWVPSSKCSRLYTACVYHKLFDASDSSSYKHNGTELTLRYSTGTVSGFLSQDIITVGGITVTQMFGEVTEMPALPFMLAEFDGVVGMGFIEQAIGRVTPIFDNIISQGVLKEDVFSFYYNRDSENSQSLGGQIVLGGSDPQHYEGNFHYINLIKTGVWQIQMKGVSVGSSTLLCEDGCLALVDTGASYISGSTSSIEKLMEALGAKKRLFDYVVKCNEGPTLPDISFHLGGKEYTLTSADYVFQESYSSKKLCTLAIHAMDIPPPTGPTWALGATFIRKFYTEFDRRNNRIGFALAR
Assay: formation of angiotensin I in human plasma, radioimmunoassay (Nussberger et al.)
Type: biochemical
Conditions: values in the range of about, read-out: IC50, inhibition of the formation of angiotensin I
Experimental: The effect of renin inhibitors is detected inter alia experimentally by means of in vitro tests where the reduction in the formation of angiotensin I is measured in various systems (human plasma, purified human renin together with synthetic or natural renin substrate). The following in vitro test of Nussberger et al. (1987) J. Cardiovascular Pharmacol., Vol. 9, pp. 39-44, is used inter alia. This test measures the formation of angiotensin I in human plasma. The amount of angiotensin I formed is determined in a subsequent radioimmunoassay. The effect of inhibitors on the formation of angiotensin I is tested in this system by adding various concentrations of these substances. The IC50 is defined as the concentration of the particular inhibitor which reduces the formation of angiotensin I by 50%. The compounds of the present invention show inhibitory effects in the in vitro systems at minimal concentrations of about 10^−6 mol/l to about 10^−10 mol/l.

IC50 [nM] | SMILES
0.1 to 10 | CCO[C@H](C)COCc1ccc([C@H]2C[C@@H](CC(C)(C)C(=O)NC)NC[C@@H]2OCc2ccc3c(c2)N(CCCOC)CCO3)cc1 [Example 5, 3-{(2S,4R,5R)-4-[4-((R)-2-Ethoxy-propoxymethyl)-phenyl]-5-[4-(3-methoxy-propyl) -3,4-dihydro-2H-benzo[1,4]oxazin-6-ylmethoxy]-piperidin-2-yl}-2,2,N-trimethyl-propionamide]
0.1 to 10 | CCO[C@H](C)COCc1ccc([C@H]2C[C@H](CCn3cnnc3)NC[C@@H]2OCc2ccc3c(c2)N(CCCOC)CCO3)cc1 [Example 9, 6-[(3R,4R,6R)-4-[4-((R)-2-Ethoxy-propoxymethyl)-phenyl]-6-(2-[1,2,4]triazol-4-yl-ethyl) -piperidin-3-yloxymethyl]-4-(3-methoxy-propyl)-3,4-dihydro-2H-benzo[1,4]oxazine]
